According to PMC11238352, “Combination of dual JAK/HDAC inhibitor with regorafenib synergistically reduces tumor growth, metastasis, and regorafenib-induced toxicity in colorectal cancer” (Journal of Experimental & Clinical Cancer Research : CR, 2024):

Columns and labels:
[1] = Pharmacokinetics in plasma; type: in vivo; details: given in combination with JAK/HDACi, C57BL/6 mice plasma, 1, 7, 21, 48 h, i.p.
Procedure: Blood samples were collected from C57BL/6 mice treated with regorafenib and JAK-HDACi at 1, 7, 21, or 48 h after treatment, and plasma samples were assayed. The quantifications of regorafenib and JAK-HDACi in plasma were conducted using a Shimadzu LC-20AD LC (Shimadzu, OR) and an API5000 MS (Sciex, MA). For sample preparation, a one-step protein precipitation with acetonitrile was used. Plasma (10 µL) was added into 250 µL of acetonitrile. Chromatographic separation was performed using an ACE Excel 3 C18 column. The mobile phase was (A) 0.1% formic acid in water and (B) 0.1% formic acid in acetonitrile utilizing a gradient from 20% to 75%. The injection volume was 10 µL. The run time was 5 min, and the retention time was 2.4 min. Standard curves for regorafenib and JAK-HDACi in plasma were prepared in the ranges of 5–15,000 ng/ml.

SW480 cells [2] = test: Annexin V-FITC/PI apoptosis flow cytometry; type: cell-based; details: SW480, 72 h, average of three experiments
Procedure: (§1) To evaluate the effect of drugs on apoptosis, cells were stained by use of TACS Annexin V-FITC apoptosis detection kit obtained from R&D Systems (Minneapolis, MN), following the manufacturer’s protocol. CRC cells (HCT116, RKO, HT29, and SW480) were seeded at 1 × 10^5/dish in triplicates in four groups: vehicle, JAK/HDACi, regorafenib, and the combination for 72 h. The cells were analyzed with a BD LSR FortessaTM Flow Cytometer (BD Biosciences, Mountain View, CA).

HCT116 cells = test: Annexin V-FITC/PI apoptosis flow cytometry; type: cell-based; details: HCT116, 72 h, average of three experiments
Procedure: as §1

HT29 cells = test: Annexin V-FITC/PI apoptosis flow cytometry; type: cell-based; details: HT29, 72 h, average of three experiments
Procedure: as §1

RKO cells = test: Annexin V-FITC/PI apoptosis flow cytometry; type: cell-based; details: 72 h, average of three experiments
Procedure: as §1

[3] = test system: luciferase-tagged HT29 cells; test: HT29 luciferase experimental metastasis model; type: in vivo; details: NSG mice
Procedure: To assess the effect of JAK/HDACi, regorafenib and their combination drug treatments on metastasis, an experiment was performed with 6-week-old NOD/SCID/IL2γ receptor-null (NSG) mice (male and female) as described. All procedures and experimental protocols were approved and conducted in compliance (IACUC-21501). For metastasis experiments, as described previously, tail vein injections with HT29 cells (0.5 × 10^6) carrying a luciferase expression construct were conducted. Mice were imaged at 0, 10, and 30 days post injection, and treated with vehicle or drugs (with JAK/HDACi, regorafenib and their combination). Drug treatments were performed as described in PDX experiment. Bioluminescence imaging was accomplished using an IVIS Lumina III instrument (Perkin Elmer, Waltham, MA), and mice were injected with luciferin 10 min prior to imaging. After 30 days, mouse lungs and kidneys were dissected, and ex vivo analyses were performed.

[4] = mouse, in vivo
From the text: Upon completion of the experiment for 30 days in HT29 metastasis model, before mice were sacrificed, blood was collected and serum was isolated to evaluate liver and kidney functions to assess toxicity with JAK/HDACi and regorafenib alone, and their combination treatment, using a comprehensive Panel EWrap (Cat# 6330-COMP) by a DRY CHEM 4000 Analyzer.

SW480 cells [5] = test: Cell cycle analysis by flow cytometry; type: cell-based; details: SW480, 24 h, 500 nM
Procedure: To evaluate the effect of drugs on cell cycle arrest, SW480 and RKO cells were seeded, 1 × 10^6/dish in triplicates in four groups: vehicle, JAK/HDACi, regorafenib, and their combination (for 24 h, following procedure described in our previous study. Cell cycle analysis was performed using BD LSR FortessaTM Flow Cytometer (BD Biosciences, Mountain View, CA).

FAK2 = molecular target: T1, FAK2 (Homo sapiens, UniProt Q14289); test: PamStation PTK kinomic profiling; type: cell-based; details: change from DMSO control
T1 construct: cell lysates were prepared; endogenous in cells; host or cells: SW480 and RKO
Procedure: (§2) SW480 and RKO cells were treated with vehicle (DMSO), JAK/HDACi, regorafenib, and their combination for 45 min, and cell lysates were prepared. Tyrosine kinase (PTK) activity (kinomic) profiling was performed using the PamStation®12 platform (PamGene, BV, The Netherlands). As per standard kinomic protocol as described previously. Whole-chip comparative analysis (BioNavigator Upkin PTK v8.0) was performed between groups generating Mean Kinase Statistics (direction of change).

HER2 = molecular target: T2, HER2 (Homo sapiens, UniProt P04626); test: PamStation PTK kinomic profiling; type: cell-based; details: change from DMSO control
T2 construct: cell lysates were prepared; endogenous in cells; host or cells: SW480 and RKO
T2 sequence (P04626 23-1255): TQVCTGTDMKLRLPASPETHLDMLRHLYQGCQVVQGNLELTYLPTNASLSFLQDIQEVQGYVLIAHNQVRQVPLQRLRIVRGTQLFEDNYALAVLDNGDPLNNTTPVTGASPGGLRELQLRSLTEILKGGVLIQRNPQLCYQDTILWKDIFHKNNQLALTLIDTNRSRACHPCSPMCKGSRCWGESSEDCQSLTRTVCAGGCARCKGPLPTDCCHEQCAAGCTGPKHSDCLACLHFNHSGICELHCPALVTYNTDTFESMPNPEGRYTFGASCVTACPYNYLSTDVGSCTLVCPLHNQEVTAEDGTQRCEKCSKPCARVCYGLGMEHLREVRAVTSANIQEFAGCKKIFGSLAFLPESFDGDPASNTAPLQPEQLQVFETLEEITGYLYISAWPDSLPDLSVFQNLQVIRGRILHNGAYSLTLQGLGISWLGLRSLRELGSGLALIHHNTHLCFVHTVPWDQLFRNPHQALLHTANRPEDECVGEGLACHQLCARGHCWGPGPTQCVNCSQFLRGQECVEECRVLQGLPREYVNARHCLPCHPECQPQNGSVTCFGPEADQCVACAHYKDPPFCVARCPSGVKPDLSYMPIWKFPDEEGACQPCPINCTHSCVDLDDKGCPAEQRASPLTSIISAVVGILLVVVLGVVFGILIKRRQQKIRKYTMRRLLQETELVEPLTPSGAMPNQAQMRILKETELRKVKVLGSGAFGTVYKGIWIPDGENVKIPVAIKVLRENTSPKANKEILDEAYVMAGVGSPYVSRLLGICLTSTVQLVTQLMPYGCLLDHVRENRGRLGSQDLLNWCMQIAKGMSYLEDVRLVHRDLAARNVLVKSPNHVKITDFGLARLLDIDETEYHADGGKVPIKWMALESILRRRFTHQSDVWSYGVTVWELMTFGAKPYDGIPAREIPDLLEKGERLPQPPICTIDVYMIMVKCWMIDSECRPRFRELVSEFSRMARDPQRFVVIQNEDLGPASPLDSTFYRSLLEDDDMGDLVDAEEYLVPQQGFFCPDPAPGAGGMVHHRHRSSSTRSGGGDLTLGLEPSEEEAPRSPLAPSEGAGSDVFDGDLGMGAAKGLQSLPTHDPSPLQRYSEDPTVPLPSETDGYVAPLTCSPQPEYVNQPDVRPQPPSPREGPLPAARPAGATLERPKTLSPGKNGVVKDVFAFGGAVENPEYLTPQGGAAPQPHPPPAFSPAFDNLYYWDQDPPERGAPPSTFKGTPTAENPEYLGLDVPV
Procedure: as §2

EphA4 = molecular target: T3, EphA4 (Homo sapiens, UniProt P54764); test: PamStation PTK kinomic profiling; type: cell-based; details: change from DMSO control
T3 construct: cell lysates were prepared; endogenous in cells; host or cells: SW480 and RKO
T3 sequence (P54764 20-986): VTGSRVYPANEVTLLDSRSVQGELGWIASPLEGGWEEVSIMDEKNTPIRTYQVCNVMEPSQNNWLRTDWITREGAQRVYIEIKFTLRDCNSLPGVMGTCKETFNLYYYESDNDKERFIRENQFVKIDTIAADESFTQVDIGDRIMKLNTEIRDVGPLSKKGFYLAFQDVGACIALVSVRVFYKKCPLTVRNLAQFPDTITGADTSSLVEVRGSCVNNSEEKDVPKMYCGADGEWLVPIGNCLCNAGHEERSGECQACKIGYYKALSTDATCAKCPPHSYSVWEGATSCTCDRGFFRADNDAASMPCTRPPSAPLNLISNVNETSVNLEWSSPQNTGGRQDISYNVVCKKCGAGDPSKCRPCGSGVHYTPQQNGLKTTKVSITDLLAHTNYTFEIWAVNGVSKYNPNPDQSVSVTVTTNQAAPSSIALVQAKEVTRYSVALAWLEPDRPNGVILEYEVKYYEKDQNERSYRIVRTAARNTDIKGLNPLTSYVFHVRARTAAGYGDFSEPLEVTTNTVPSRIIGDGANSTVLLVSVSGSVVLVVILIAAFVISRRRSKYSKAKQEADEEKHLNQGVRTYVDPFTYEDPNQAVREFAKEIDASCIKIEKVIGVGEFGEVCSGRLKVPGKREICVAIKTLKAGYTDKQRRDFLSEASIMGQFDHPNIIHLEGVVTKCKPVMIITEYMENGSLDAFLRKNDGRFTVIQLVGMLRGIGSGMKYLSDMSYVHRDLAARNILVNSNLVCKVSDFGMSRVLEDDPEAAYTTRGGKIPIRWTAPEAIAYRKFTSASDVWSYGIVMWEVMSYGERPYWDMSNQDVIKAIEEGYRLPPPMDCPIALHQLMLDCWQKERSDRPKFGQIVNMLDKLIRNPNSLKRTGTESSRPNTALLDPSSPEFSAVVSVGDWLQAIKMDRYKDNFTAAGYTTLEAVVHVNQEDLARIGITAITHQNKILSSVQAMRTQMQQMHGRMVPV
Procedure: as §2

PDGFR[alpha] = molecular target: T4, PDGFR[alpha] (Homo sapiens, UniProt P16234); test: PamStation PTK kinomic profiling; type: cell-based; details: change from DMSO control
T4 construct: cell lysates were prepared; endogenous in cells; host or cells: SW480 and RKO
T4 sequence (P16234 24-1089): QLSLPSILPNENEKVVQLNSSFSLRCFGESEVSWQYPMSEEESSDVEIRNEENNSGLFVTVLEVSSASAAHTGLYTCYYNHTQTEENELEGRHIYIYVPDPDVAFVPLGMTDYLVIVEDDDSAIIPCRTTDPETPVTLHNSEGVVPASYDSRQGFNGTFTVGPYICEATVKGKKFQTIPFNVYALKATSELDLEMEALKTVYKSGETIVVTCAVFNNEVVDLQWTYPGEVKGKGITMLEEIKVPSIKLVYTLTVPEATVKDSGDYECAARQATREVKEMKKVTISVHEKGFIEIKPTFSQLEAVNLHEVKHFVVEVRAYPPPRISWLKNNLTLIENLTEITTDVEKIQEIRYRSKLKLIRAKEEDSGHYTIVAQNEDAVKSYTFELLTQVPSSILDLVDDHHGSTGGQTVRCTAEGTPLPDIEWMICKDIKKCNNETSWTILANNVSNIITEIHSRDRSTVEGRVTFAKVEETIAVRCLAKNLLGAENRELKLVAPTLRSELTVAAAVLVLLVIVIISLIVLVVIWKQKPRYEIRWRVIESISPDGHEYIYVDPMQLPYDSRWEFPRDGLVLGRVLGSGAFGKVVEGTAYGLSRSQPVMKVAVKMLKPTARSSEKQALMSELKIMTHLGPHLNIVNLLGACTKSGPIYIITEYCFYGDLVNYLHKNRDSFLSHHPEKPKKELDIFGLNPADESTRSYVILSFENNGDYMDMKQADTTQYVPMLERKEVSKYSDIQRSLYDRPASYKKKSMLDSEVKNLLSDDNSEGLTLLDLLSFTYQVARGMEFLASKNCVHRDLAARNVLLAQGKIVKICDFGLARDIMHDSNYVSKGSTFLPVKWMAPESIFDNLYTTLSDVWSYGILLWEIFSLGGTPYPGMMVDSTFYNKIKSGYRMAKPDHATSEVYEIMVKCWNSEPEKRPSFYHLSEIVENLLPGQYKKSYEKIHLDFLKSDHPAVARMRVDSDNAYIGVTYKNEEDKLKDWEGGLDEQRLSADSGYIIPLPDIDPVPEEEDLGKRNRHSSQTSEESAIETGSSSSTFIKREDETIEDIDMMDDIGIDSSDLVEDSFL
Procedure: as §2

FLT1 = molecular target: T5, FLT1 (Homo sapiens, UniProt P17948); test: PamStation PTK kinomic profiling; type: cell-based; details: change from DMSO control
T5 construct: endogenous in cells; host or cells: SW480 and RKO
Procedure: as §2

EphA5 = molecular target: T6, EphA5 (Homo sapiens, UniProt P54756); test: PamStation PTK kinomic profiling; type: cell-based; details: change from DMSO control
T6 construct: cell lysates were prepared; endogenous in cells; host or cells: SW480 and RKO
Procedure: as §2

FGFR2 = molecular target: T7, FGFR2 (Homo sapiens, UniProt P21802); test: PamStation PTK kinomic profiling; type: cell-based; details: change from DMSO control
T7 construct: cell lysates were prepared; endogenous in cells; host or cells: SW480 and RKO
T7 sequence (P21802 22-821): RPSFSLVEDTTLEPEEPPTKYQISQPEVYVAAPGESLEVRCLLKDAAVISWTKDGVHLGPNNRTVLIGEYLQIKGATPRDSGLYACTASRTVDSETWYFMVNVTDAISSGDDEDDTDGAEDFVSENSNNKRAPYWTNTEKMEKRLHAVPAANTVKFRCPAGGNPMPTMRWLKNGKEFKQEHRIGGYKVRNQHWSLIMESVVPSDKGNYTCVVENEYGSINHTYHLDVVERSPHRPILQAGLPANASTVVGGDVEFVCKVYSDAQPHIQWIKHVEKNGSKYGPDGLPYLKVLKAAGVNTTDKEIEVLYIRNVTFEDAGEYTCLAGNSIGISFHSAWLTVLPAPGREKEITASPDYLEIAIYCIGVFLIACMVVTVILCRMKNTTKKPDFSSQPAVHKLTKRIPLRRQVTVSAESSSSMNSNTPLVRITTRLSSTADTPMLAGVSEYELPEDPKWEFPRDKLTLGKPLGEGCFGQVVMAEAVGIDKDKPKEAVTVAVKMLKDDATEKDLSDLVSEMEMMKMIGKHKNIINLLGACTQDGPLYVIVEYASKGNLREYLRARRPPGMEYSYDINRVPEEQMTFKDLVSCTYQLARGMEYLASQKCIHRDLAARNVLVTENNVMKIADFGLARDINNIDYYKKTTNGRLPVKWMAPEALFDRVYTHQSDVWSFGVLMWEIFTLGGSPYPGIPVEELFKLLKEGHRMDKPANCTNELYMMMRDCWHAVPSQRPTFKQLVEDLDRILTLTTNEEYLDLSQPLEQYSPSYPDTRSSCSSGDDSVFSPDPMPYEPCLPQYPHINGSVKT
Procedure: as §2

HER4 = molecular target: T8, HER4 (Homo sapiens, UniProt Q15303); test: PamStation PTK kinomic profiling; type: cell-based; details: change from DMSO control
T8 construct: we conducted kinome analysis on lysates of SW480 and RKO cells; endogenous in cells; host or cells: SW480 and RKO cells
Procedure: as §2

EphA8 = molecular target: T9, EphA8 (Homo sapiens, UniProt P29322); test: PamStation PTK kinomic profiling; type: cell-based; details: change from DMSO control
T9 construct: cell lysates were prepared; endogenous in cells; host or cells: SW480 and RKO
T9 sequence (P29322 28-1005): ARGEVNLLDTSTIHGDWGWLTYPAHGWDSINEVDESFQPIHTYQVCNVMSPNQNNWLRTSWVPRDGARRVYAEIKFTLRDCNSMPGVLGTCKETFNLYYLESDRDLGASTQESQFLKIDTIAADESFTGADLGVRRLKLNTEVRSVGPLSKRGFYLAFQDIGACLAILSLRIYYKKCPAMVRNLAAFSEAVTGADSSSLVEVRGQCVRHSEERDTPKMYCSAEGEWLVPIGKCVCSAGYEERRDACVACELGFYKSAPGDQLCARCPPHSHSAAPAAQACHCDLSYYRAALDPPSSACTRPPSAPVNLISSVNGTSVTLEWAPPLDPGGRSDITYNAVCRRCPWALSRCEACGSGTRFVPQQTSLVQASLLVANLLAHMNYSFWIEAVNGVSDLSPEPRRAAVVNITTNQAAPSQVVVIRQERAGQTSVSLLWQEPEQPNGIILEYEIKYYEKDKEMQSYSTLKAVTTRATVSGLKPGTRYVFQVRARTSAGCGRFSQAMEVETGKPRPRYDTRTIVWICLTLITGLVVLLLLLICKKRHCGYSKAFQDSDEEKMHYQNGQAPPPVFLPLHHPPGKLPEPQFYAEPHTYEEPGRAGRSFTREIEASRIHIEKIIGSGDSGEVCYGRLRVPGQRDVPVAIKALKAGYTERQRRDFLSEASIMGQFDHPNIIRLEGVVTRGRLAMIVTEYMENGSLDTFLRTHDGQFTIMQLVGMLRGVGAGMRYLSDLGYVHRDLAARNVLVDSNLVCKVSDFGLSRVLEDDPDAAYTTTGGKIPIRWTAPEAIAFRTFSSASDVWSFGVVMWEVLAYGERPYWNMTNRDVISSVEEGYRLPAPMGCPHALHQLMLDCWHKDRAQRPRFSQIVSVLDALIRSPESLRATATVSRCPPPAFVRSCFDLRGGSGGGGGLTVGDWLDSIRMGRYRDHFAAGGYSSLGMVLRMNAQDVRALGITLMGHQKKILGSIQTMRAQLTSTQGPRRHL
Procedure: as §2

EGFR = molecular target: T10, EGFR (Homo sapiens, UniProt P00533); test: PamStation PTK kinomic profiling; type: cell-based; details: change from DMSO control
T10 construct: cell lysates were prepared; endogenous in cells; host or cells: SW480 and RKO
Procedure: as §2

FAK1 = molecular target: T11, FAK1 (Homo sapiens, UniProt Q05397); test: PamStation PTK kinomic profiling; type: cell-based; details: RKO, 45 min, change from DMSO control
T11 construct: cell lysates were prepared; endogenous in cells; host or cells: SW480 and RKO
Procedure: as §2

Compound: CNC(=O)c1cc(Oc2ccc(NC(=O)Nc3ccc(Cl)c(C(F)(F)F)c3)c(F)c2)ccn1 [regorafenib]
- bioavailability of regorafenib [1]: increased
- percentage of apoptotic cells (sum of early and late apoptotic cells) (SW480 cells [2]): 11.17%
- percentage of apoptotic cells (sum of early and late apoptotic cells) (HCT116 cells): 13.62%
- percentage of apoptotic cells (sum of early and late apoptotic cells) (HT29 cells): 5.16%
- percentage of apoptotic cells (sum of early and late apoptotic cells) (RKO cells): 1.18%
- bioluminescence intensity on day 30th [3]: reduced intensities
- ALT [4]: 16 U/L
- Albumin/Globulin [4]: 1.0
- Creatinine [4]: 0.4 mg/dL
- Globulin [4]: 2.6 g/dL
- Total Billirubin [4]: 0.5 mg/dL
- toxicity by serum analysis (liver and kidney functions) [4]: no evident toxicity
- cells arrested at the G0-G1 phase (SW480 cells [5]): 39.1%
- cells in synthesis (S) phase (SW480 cells [5]): 50%
- Mean Kinase Statistic, FAK2 (FAK2; RKO, 45 min): -0.049
- Mean Kinase Statistic, FAK2 (FAK2; SW480, 45 min): -0.181
- Mean Kinase Statistic, HER2 (HER2; RKO, 45 min): 0.090
- Mean Kinase Statistic, HER2 (HER2; SW480, 45 min): -0.225
- Mean Kinase Statistic, EphA4 (EphA4; RKO, 45 min): -0.122
- Mean Kinase Statistic, EphA4 (EphA4; SW480, 45 min): -0.155
- Mean Kinase Statistic, PDGFR[alpha] (PDGFR[alpha]; RKO, 45 min): 0.135
- Mean Kinase Statistic, PDGFR[alpha] (PDGFR[alpha]; SW480, 45 min): -0.175
- Mean Kinase Statistic, FLT1 (FLT1; RKO, 45 min): 0.207
- Mean Kinase Statistic, FLT1 (FLT1; SW480, 45 min): -0.166
- Mean Kinase Statistic, EphA5 (EphA5; RKO, 45 min): -0.050
- Mean Kinase Statistic, EphA5 (EphA5; SW480, 45 min): -0.324
- Mean Kinase Statistic, FGFR2 (FGFR2; RKO, 45 min): 0.180
- Mean Kinase Statistic, FGFR2 (FGFR2; SW480, 45 min): -0.279
- Mean Kinase Statistic, HER4 (HER4; RKO, 45 min): 0.025
- Mean Kinase Statistic, HER4 (HER4; SW480, 45 min): -0.223
- Mean Kinase Statistic, EphA8 (EphA8; RKO, 45 min): -0.006
- Mean Kinase Statistic, EphA8 (EphA8; SW480, 45 min): -0.155
- Mean Kinase Statistic, EGFR (EGFR; RKO, 45 min): 0.026
- Mean Kinase Statistic, EGFR (EGFR; SW480, 45 min): -0.125
- Mean Kinase Statistic, FAK1 (FAK1): 0.052
